Source: ChEMBL document CHEMBL3991601, “The target landscape of clinical kinase drugs” (Science, 2017)
The source made the active and inactive calls. For most assays here, no stated cut-off is given here; in the data, actives have a measured Kd and inactives only a lower limit.

Experiments:
[1] = target: Protein kinase C delta type (Homo sapiens, UniProt Q05655)
[2] = target: T1, Dual specificity mitogen-activated protein kinase kinase 6 (Homo sapiens, UniProt P52564)
T1 sequence (P52564 whole entry): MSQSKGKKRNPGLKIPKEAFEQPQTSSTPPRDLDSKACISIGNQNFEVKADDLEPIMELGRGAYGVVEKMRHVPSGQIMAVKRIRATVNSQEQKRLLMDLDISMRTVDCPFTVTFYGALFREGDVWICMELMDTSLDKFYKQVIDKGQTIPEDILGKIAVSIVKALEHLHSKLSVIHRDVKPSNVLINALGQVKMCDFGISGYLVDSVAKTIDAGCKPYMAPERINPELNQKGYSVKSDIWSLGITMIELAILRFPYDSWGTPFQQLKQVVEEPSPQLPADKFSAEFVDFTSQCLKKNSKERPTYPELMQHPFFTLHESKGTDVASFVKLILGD

[3] = target: Cyclin-dependent kinase 5 (Homo sapiens, UniProt Q00535)
Sequence of Cyclin-dependent kinase 5 (Q00535 whole entry): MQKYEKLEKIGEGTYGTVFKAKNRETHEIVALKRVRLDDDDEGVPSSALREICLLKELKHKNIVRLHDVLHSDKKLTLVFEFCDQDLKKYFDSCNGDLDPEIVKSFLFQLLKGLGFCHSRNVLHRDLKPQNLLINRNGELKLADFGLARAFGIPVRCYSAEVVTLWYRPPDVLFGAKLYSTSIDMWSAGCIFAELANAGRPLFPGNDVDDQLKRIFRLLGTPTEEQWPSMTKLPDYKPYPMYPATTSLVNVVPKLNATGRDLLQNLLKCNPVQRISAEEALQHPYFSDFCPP

[4] = target: T2, Inhibitor of nuclear factor kappa-B kinase subunit epsilon (Homo sapiens, UniProt Q14164)
T2 sequence (Q14164 whole entry): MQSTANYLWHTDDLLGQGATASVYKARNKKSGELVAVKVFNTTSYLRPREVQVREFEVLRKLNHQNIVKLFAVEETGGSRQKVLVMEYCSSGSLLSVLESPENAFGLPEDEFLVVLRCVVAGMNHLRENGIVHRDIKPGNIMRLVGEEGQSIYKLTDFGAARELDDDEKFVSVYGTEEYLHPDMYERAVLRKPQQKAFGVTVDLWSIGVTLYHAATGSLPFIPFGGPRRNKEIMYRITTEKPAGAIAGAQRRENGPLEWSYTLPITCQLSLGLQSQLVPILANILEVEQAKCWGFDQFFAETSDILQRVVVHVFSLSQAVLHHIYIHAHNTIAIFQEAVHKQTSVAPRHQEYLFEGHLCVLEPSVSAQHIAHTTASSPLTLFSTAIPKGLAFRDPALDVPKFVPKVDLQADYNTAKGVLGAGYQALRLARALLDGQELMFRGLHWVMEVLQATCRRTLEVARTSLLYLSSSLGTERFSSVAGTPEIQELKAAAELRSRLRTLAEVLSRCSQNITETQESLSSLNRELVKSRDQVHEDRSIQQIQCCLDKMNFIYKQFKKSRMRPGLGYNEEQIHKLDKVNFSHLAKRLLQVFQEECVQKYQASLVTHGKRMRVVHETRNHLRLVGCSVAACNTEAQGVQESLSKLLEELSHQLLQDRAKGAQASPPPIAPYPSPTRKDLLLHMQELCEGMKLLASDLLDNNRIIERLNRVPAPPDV

[5] = target: Serine/threonine-protein kinase SIK2 (Homo sapiens, UniProt Q9H0K1)
Sequence of Serine/threonine-protein kinase SIK2 (Q9H0K1 whole entry): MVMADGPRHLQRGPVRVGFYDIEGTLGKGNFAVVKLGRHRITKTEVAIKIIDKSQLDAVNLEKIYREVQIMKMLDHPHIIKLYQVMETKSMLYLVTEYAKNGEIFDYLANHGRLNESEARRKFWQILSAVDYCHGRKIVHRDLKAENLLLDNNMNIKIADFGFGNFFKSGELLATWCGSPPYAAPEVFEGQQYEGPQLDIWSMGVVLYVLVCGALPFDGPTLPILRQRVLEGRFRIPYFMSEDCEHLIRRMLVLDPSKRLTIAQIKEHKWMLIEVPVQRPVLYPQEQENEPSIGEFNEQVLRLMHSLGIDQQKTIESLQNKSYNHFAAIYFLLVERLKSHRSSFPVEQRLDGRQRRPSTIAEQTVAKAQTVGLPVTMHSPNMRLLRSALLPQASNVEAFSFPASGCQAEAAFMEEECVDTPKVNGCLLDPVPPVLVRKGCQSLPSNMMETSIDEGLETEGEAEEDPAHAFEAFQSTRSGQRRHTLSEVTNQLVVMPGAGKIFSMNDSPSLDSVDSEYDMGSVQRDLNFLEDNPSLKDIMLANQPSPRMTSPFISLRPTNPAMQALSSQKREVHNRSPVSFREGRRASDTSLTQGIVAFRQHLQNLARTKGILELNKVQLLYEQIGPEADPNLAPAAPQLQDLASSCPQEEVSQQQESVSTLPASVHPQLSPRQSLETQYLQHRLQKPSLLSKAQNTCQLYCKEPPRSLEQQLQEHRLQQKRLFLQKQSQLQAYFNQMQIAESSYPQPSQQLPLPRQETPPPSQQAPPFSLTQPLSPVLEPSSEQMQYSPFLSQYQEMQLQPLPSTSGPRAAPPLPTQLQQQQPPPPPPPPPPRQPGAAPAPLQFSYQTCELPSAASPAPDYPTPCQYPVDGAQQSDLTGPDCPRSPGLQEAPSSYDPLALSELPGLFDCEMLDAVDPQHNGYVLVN

[6] = target: Tyrosine-protein kinase JAK1 (Homo sapiens, UniProt P23458)
Sequence of Tyrosine-protein kinase JAK1 (P23458 whole entry): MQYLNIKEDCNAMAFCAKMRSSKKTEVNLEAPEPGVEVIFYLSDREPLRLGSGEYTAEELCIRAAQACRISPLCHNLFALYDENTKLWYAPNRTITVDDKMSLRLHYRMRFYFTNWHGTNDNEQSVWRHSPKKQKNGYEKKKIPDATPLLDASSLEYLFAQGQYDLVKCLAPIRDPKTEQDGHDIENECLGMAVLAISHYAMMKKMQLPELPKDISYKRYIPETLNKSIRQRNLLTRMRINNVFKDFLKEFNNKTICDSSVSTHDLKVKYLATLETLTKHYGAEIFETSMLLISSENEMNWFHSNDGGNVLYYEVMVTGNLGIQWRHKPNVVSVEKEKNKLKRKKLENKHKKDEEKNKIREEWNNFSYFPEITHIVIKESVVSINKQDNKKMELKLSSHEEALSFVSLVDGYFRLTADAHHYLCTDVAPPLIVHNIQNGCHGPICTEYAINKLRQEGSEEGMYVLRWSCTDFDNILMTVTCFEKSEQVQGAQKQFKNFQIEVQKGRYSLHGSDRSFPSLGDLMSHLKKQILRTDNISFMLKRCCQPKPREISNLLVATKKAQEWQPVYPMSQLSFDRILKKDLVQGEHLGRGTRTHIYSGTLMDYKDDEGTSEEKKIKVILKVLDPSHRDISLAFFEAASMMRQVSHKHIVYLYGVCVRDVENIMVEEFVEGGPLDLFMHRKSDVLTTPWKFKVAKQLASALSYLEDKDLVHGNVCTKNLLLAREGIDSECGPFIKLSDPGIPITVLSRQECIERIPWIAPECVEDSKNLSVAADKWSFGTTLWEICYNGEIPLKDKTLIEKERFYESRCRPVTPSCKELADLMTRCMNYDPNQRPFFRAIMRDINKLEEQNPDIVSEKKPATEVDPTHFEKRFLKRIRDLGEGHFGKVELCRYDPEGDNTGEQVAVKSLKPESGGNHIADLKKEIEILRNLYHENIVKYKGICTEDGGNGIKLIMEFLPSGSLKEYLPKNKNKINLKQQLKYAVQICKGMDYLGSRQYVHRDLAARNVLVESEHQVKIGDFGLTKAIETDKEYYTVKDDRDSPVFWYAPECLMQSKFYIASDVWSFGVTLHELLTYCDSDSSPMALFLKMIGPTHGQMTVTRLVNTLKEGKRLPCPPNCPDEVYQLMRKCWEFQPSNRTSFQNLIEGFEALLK

[7] = target: T3, Serine/threonine-protein kinase NLK (Homo sapiens, UniProt Q9UBE8)
T3 sequence (Q9UBE8 whole entry): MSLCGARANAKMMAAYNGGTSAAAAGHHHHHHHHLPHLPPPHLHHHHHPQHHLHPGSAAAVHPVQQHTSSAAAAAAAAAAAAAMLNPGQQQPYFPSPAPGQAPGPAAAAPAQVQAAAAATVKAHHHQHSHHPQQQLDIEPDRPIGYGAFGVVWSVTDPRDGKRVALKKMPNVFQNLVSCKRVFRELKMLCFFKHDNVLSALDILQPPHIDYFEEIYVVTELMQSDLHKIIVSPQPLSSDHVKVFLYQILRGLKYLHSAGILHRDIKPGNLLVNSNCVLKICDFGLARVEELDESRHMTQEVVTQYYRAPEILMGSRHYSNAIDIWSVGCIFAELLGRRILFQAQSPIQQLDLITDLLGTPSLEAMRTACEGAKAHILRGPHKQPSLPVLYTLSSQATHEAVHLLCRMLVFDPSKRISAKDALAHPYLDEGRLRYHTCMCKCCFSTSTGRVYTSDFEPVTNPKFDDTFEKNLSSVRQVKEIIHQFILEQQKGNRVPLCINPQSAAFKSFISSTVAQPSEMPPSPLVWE

Glycine--tRNA ligase = target: T4, Glycine--tRNA ligase (Homo sapiens, UniProt P41250)
T4 sequence (P41250 whole entry): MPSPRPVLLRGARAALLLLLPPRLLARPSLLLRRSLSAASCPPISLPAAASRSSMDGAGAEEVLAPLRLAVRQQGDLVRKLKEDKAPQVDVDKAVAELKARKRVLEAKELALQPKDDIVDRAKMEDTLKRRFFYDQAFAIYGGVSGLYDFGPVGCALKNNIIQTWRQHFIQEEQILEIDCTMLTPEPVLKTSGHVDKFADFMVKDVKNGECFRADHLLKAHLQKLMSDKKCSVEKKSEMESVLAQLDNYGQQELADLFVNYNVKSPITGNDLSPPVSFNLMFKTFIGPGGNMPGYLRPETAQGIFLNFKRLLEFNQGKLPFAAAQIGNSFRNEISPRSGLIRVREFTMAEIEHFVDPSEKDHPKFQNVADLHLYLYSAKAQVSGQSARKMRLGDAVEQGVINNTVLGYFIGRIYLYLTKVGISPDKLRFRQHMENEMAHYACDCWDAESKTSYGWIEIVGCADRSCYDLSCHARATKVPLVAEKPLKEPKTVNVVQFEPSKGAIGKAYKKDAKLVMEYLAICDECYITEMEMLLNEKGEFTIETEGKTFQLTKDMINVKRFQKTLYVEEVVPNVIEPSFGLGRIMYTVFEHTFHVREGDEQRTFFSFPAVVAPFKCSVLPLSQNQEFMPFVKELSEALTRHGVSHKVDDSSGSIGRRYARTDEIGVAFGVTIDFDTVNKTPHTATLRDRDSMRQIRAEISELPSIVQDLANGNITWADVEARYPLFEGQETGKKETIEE

[8] = target: T5, Uncharacterized protein FLJ45252 (Homo sapiens, UniProt Q6ZSR9); conditions: read-out: Kd apparent; k-562, colo 205, sk-n-be(2) and mv-4-11
T5 sequence (Q6ZSR9 whole entry): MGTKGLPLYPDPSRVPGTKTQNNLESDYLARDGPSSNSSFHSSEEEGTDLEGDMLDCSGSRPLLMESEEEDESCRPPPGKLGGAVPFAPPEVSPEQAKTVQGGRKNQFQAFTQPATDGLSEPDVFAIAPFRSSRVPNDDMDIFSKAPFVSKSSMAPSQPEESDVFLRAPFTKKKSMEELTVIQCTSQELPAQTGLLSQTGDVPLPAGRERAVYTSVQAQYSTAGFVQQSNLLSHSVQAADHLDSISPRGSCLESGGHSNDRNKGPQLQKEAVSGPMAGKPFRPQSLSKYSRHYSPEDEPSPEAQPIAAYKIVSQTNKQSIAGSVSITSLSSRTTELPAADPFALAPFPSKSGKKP

Sequence of Protein kinase C delta type (Q05655 whole entry): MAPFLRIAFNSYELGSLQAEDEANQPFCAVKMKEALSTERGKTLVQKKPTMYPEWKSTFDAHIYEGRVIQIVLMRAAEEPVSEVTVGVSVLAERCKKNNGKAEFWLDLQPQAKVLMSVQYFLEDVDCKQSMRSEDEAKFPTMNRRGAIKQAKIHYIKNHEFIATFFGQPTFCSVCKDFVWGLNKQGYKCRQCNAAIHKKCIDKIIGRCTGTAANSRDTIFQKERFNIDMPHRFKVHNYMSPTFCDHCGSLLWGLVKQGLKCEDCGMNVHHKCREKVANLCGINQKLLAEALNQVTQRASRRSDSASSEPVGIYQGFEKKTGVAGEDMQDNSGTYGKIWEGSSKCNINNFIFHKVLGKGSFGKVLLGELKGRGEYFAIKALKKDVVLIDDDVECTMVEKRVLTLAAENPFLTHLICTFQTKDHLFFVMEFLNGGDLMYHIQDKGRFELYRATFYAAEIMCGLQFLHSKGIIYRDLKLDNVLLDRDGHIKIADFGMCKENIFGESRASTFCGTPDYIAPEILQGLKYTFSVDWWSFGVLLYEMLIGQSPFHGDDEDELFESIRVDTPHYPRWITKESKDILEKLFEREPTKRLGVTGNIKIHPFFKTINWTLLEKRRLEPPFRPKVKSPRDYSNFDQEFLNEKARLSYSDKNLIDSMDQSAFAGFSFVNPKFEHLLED

Row | SMILES | Kd [1] | Kd [2] | Kd [3] | Kd [4] | Kd [5] | Kd [6] | Kd [7] | Kd (Glycine--tRNA ligase) | Kd [8]
1 | NC[C@@](O)(c1ccc(Cl)cc1)c1ccc(-c2cn[nH]c2)cc1 [AT-13148] | 0.044 µM (active) | > 30 µM (inactive) | > 30 µM (inactive) | > 30 µM (inactive) | > 30 µM (inactive) | > 30 µM (inactive) | > 30 µM (inactive) | > 30 µM (inactive) | > 30 µM (inactive)
2 | C=CCN(/C=C1/C(=O)O[C@H](COC)[C@@]2(C)C1=C(O)C(=O)C1=C2[C@H](OC(C)=O)C[C@]2(C)C(=O)CC[C@@H]12)CC=C [SONOLISIB] | > 30 µM (inactive) | > 30 µM (inactive) | > 30 µM (inactive) | > 30 µM (inactive) | > 30 µM (inactive) | > 30 µM (inactive) | > 30 µM (inactive) | > 30 µM (inactive) | > 30 µM (inactive)
3 | Cc1c(NC(=O)OC[C@@H]2COCCN2)cn2ncnc(Nc3ccc4c(cnn4Cc4cccc(F)c4)c3)c12 [AC-480] | > 30 µM (inactive) | > 30 µM (inactive) | > 30 µM (inactive) | > 30 µM (inactive) | > 30 µM (inactive) | > 30 µM (inactive) | > 30 µM (inactive) | > 30 µM (inactive) | > 30 µM (inactive)
4 | Cc1cc(Nc2nc(N[C@@H](C)c3ncc(F)cn3)ncc2Cl)n[nH]1 [AZD-1480] | > 30 µM (inactive) | > 30 µM (inactive) | > 30 µM (inactive) | > 30 µM (inactive) | > 30 µM (inactive) | > 30 µM (inactive) | > 30 µM (inactive) | > 30 µM (inactive) | > 30 µM (inactive)

Results, then the compound that gave them:

Row | Kd [1] | Kd [2] | Kd [3] | Kd [4] | Kd [5] | Kd [6] | Kd [7] | Kd (Glycine--tRNA ligase) | Kd [8] | SMILES
5 | > 30 µM (inactive) | > 30 µM (inactive) | > 30 µM (inactive) | > 30 µM (inactive) | > 30 µM (inactive) | > 30 µM (inactive) | > 30 µM (inactive) | > 30 µM (inactive) | > 30 µM (inactive) | COc1cc2nccc(Oc3ccc(NC(=O)C4(C(=O)Nc5ccc(F)cc5)CC4)cc3)c2cc1OC [CABOZANTINIB]
6 | > 30 µM (inactive) | > 30 µM (inactive) | > 30 µM (inactive) | > 30 µM (inactive) | > 30 µM (inactive) | > 30 µM (inactive) | > 30 µM (inactive) | > 30 µM (inactive) | > 30 µM (inactive) | C[C@@H]1COC(Nc2ccc3ncnc(Nc4ccc(OCc5nccs5)c(Cl)c4)c3c2)=N1 [VARLITINIB]
7 | > 30 µM (inactive) | > 30 µM (inactive) | > 30 µM (inactive) | > 30 µM (inactive) | > 30 µM (inactive) | > 30 µM (inactive) | > 30 µM (inactive) | > 30 µM (inactive) | > 30 µM (inactive) | COc1ccc(-c2ccc3ncc4c(c3c2)n(-c2ccc(N3CCNCC3)c(C(F)(F)F)c2)c(=O)n4C)cn1 [BGT-226 FREE BASE]
